Results taken from patent US20250228858A1, “ANTI-CANCER COMBINATION THERAPY” (Boehringer Ingelheim International GmbH, priority 2023, published 2025).

How the values were obtained:
[1] = test system: HER2-overexpressing human breast cancer cell line SUM190PT; assay type: in vivo
Protocol: The study is performed in human breast cancer cell line SUM190PT grown as subcutaneous xenografts in NMRI-Foxn1^nu mice. Day 1 was the first day, day 21 the last day of treatment and final day of analysis.
Cells are obtained and cultured as described in Example 8 (see paragraph 8.1.2).
Capecitabine can be purchased from Roche Pharma AG. Capecitabine is suspended with 0.5% Natrosol and administered intragastrally with a volume of 10 ml/kg.
Tumor volumes and side effects are monitored as described in Example 1 (see paragraph 1.1.6), except that control animals are sacrificed when the median tumor volume of the group reaches a size of approximately 540 mm^3.
The statistical evaluation of the tumor volume and the body weight is conducted on day 21 (last day of the study). Apart from this, statistical analysis was performed as described in Example 1 (see paragraph 1.1.7), with no evaluation of tumor growth after stop of treatment.

[2] = test system: HER2-overexpressing human gastric cancer cell line NCI-N87; test: NCI-N87 subcutaneous xenograft, zongertinib with T-DM1; assay type: in vivo, NMRI-Foxn1^nu mice; details: for Regressions >30% / TGI: day 21; for Regressions >30%: tumors regressed/total; for Time to reach 300 mm^3: median, after stop of treatment at day 21
Protocol: The study is performed in human gastric cancer cell line NCI-N87 grown as subcutaneous xenografts in NMRI-Foxn1^nu mice. Day 1 was the first day, day 21 the last day of treatment and day 22 the final day of analysis. […]
NCI-N87 is a HER2-overexpressing human gastric cancer cell line that can be obtained from the American Type Culture Collection (ATCC #CRL-5822). Cells are cultured in T175 tissue culture flasks at 37° C. and 5% CO2. The medium used is RPMI 1640 (ATCC #30-2001) supplemented with 10% fetal calf serum (FCS) (Thermo Scientific #SH 30084.03). Cultures are split twice weekly with a ratio of 1:2.
Mice are 6- to 10-week-old female NMRI-Foxn1^nu purchased from Taconic, Denmark. After arrival at the animal facility, mice are allowed to adjust to conditions at least for 5 days before they are used for the experiment. They are housed in Macrolon® type III cages in groups of 8 to 10 under pathogen-free, controlled and standardized conditions at 21.5±1.5° C. temperature, 55±10% humidity and 12-h light-dark cycle. Standardized diet (PROVIMI KLIBA) and autoclaved tap water are provided ad libitum. Subcutaneous microchips implanted under isoflurane anaesthesia are used to identify each mouse. Cage cards showing the study number, the animal identification number, the compound, the dose level, the administration route as well as the schedule remain with the animals throughout the study.
To establish subcutaneous tumors, NCI-N87 cells are harvested by centrifugation, washed and resuspended in PBS+5% FCS at 2.5×10^7 cells/ml. 100 μl cell suspension containing 2.5×10^6 cells is injected subcutaneously into the right flank of the mice (1 site per mouse).
The suspension is used for a maximum of 7 days.
T-DM1 (Kadcyla) can be purchased from Roche.
(§1) Mice in the control group are treated with vehicle, i.e.: • (i) 0.5% Natrosol, administered once daily for the duration of the treatment intragastrally by gavage needle with a volume of 10 ml/kg body weight; and • (ii) saline (0.9%), administered once every three weeks intravenously into the tail vein with a volume of 5 ml/kg.
Tumor volumes are measured three times a week with a caliper. The volume of each tumor [in mm^3] is calculated according to the formula: […]
To monitor side effects of treatment, mice are inspected daily for abnormalities and body weight is determined three times a week. […] In addition, animals with tumor sizes exceeding 1500 mm^3 in diameter, with ulcerating tumors or 18% body weight loss are euthanized for ethical reasons.
For a quick overview of possible treatment effects, the median of the tumor volume of each treatment group T is referred to the median of the control C as tumor growth inhibition (TGI) defined as: […]
To do so, the time until the tumor reached a critical volume of 300 mm^3 can be included as an additional evaluation parameter. If an animal is sacrificed for tumor necrosis without reaching the critical tumor volume, the time point is set to the last measurement time point and included as a censored observation.
The median survival time is derived from the Kaplan Meier survival curves per group as the time point with a survival probability (probability of reaching the critical tumor volume) of 0.5. For the treatment groups the median survival time is referred to the corresponding time of the control group as an estimate for the prolongation of the time to critical tumor volume by the therapy.

parental NCI-N87 cells = test: Proliferation assay (CellTiter Glo), parental NCI-N87 cells; assay type: cell-based, human; details: 5 days of incubation, in vitro
Protocol: Per well, 1000 cells are seeded in 40 μL medium in white, sterile 384-well culture plates (TC-treated; PerkinElmer #6007680) and incubated overnight in a humidified incubator at 37° C. and 5% CO2. 0.1% DMSO-control or serial compound dilution in triplicates are added. […] After 5 days of incubation with test compounds, the cells plates are measured upon addition of CellTiter Glo Luminescent Cell Viability Reagent (Promega, #G9243) to assess cell viability. The plates are placed on a shaker for five minutes and additionally incubated for 10 minutes at room temperature to induce cell lysis and to stabilize the luminescent signal. The luminescent signal of each well is measured in an EnSpire Multilabel Plate Reader 658 (PerkinElmer). The dose response curves are fit and visualized using Boehringer Ingelheim's proprietary software MegaLab and PRISM (GraphPad Inc.).

[3] = test system: HER2-overexpressing human esophagus cancer cell line OE19; test: OE19 subcutaneous xenograft, zongertinib with trastuzumab; assay type: in vivo, NMRI-Foxn1^nu mice; details: day 14; for Regressions >30%: tumors regressed/total (partial response)
Protocol: The study is performed in human esophagus cancer cell line OE19 grown as subcutaneous xenografts in NMRI-Foxn1^nu mice. Day 1 was the first day, day 14 the last day of treatment and final day of analysis.
OE19 is obtained and cultured as described in Example 3 (see paragraph 3.1.2).
as §1, with “• (iii)” for “• (i)”, “• (iv)” for “• (ii)”, “once weekly intraperitoneally” for “once every three weeks intravenously into the tail vein”, “of 10” for “of 5”
Tumor volumes and side effects are monitored as described in Example 1 (see paragraph 1.1.6), except that control animals are sacrificed when the median tumor volume of the group reaches a size of approximately 640 mm^3.
The statistical evaluation of the tumor volume and the body weight is conducted on day 14 (last day of the study). Apart from this, statistical analysis was performed as described in Example 1 (see paragraph 1.1.7), with no evaluation of tumor growth after stop of treatment.

[4] = zongertinib 5 mg/kg qdx21 p.o., alone or combined with T-DM1 10 mg/kg q21dx1 i.v.
[5] = zongertinib 20 mg/kg qdx21 p.o., T-DM1 10 mg/kg q21dx1 i.v., alone or combined
[6] = zongertinib 20 mg/kg/day, T-DM1 10 mg/kg, alone or combined
[7] = zongertinib 20 mg/kg qdx14 p.o., trastuzumab 20 mg/kg q7dx2 i.p., alone or combined

| Molecule | Regressions >30% ([1]; day 21, tumors regressed/total (partial response), zongertinib 10 mg/kg qdx21 p.o., capecitabine 400 mg/kg qdx21 p.o., trastuzumab 20 mg/kg q7dx3 i.p., alone or combined) | TGI ([1]; day 21, zongertinib 10 mg/kg qdx21 p.o., capecitabine 400 mg/kg qdx21 p.o., trastuzumab 20 mg/kg q7dx3 i.p., alone or combined) | effect on tumor growth (median tumor volumes over time) ([1]; zongertinib 10 mg/kg qdx21, capecitabine 400 mg/kg qdx21, trastuzumab 20 mg/kg q7dx3, alone or triple combination) | Regressions >30% [2, 4] | Regressions >30% [2, 5] | TGI [2, 4] | TGI [2, 5] | Time to reach 300 mm^3 [2, 4] | effect on tumor growth (median tumor volumes over time) ([2]; zongertinib 5 mg/kg/day, alone or combined with T-DM1 10 mg/kg) | effect on tumor growth (median tumor volumes over time) [2, 6] | sensitivity (dose response, cell viability) (parental NCI-N87 cells) | stable disease ([3]; number of tumors out of 8, zongertinib 20 mg/kg qdx14, trastuzumab 20 mg/kg q7dx2, monotherapies) | Regressions >30% [3, 7] | Regressions >30% ([3]; zongertinib 20 mg/kg qdx14 p.o., trastuzumab 20 mg/kg q7dx2 i.p., alone or combined, listed as zongertinib) | TGI [3, 7] | Time to reach 300 mm^3 [2, 5] |
| --- | --- | --- | --- | --- | --- | --- | --- | --- | --- | --- | --- | --- | --- | --- | --- | --- |
| C=CC(=O)NC1CCN(c2ncc3ncnc(Nc4ccc(Oc5ccc6c(c5)ncn6C)c(C)c4)c3n2)CC1 [Zongertinib, N-{1-[8-({3-methyl-4-[(1-methyl-1H-1,3-benzodiazol-5-yl)oxy]phenyl}amino)-[1,3]diazino [5,4-d]pyrimidin-2-yl]piperidin-4-yl}prop-2-enamide] | 0/8 | 53% | delayed tumor growth but did not shrink tumors | 0/8 | 8/8 | 45% | 145% | 30.0 days | did not shrink tumors | induced deep and persistent tumor shrinkage | sensitive | no stable disease | 0/8 | no partial response | 80% | – |
| trastuzumab emtansine [T-DM1, reference compound] | – | – | – | – | 1/8 | – | 67% | – | – | suppressed the growth of NCI-N87 tumors but did not shrink them | – | – | – | – | – | 39.5 days |
